Measurements: PMC5775429, “LY2087101 and dFBr share transmembrane binding sites in the (α4)3(β2)2 Nicotinic Acetylcholine Receptor” (Scientific Reports, 2018)
Values joined by “and” are separate entries in the source; they are usually repeats but may differ in a detail not shown here. Equal entries are not always repeated. Where two headings read alike, the source gives them in different places.

Columns and labels:
Experiment in all cases: Two-electrode voltage-clamp of ACh-induced currents in Xenopus oocytes
Format in all cases: cell-based
(α4)3(β2)2 nAChR = target: T1, (α4)3(β2)2 nAChR (Homo sapiens, UniProt P17787+P43681); settings: for R, potentiation ratio (PR): 10 µM ACh + 1 µM PAM vs 10 µM ACh alone
T1 construct: expressed in transfected cells; host or cells: Xenopus laevis oocytes injected with cRNA
Procedure: To begin to characterize LY2087101 interaction with the heteropentameric α4β2 nAChRs, we examined the selectivity of LY2087101 for the two α4β2 nAChR isoforms; high-agonist sensitivity (α4)2(β2)3 and low-agonist sensitivity (α4)3(β2)2 nAChRs. Xenopus oocytes were injected with α4 and β2 subunits RNAs at ratios 8:1 and 1:8 to favor expression of (α4)3(β2)2 and (α4)2(β2)3 nAChRs, respectively.
(§1) Ovarian lobules were surgically harvested from oocytes-positive female Xenopus laevis (NASCO, Fort Atkinson, WI) according to an animal use protocol approved by the Texas A&M Health Sciences Center Institutional Animals Care and Use Committee. The Texas A&M Health Sciences Center Research Facility is registered as an animal research facility with the United States Department of Agriculture and is fully accredited by the American Association for Accreditation of Laboratory Animal Care (AAALAC). For oocytes defolliculation, ovarian lobes were treated with 3 mg/ml collagenase type 2 (Worthington Biomedical, Lakewood, NJ) in Ca + 2-free buffer (85 mM NaCl, 2.5 mM KCl, 1 mM MgCl2, 5 mM HEPES, pH 7.6). Collagenase treatment was allowed to proceed for 3 hours at room temperature with gentle shaking then oocytes were washed several times with buffer to remove collagenase then with ND96-gentamicine buffer. Healthy Stage V and VI oocytes were visually selected and maintained at 18 °C in modified ND96-gentamicine buffer (96 mM NaCl, 2 mM KCl, 1.8 mM CaCl2, 1 mM MgCl2, 5 mM HEPES, 50 µg/ml gentamicin, pH 7.6). Oocytes were injected with 50–100 ng of the desired nAChR subunits cRNA mix at ratios of 8α:1β or 1α:8β to express nAChRs with subunit stoichiometries of 3α:2β (low agonist sensitivity) or 2α:3β (high agonist sensitivity), respectively.
(§2) Oocytes were continuously perfused with recording buffer (100 mM NaCl, 2 mM KCl, 1 mM CaCl2, 0.8 mM MgCl2, 1 mM EGTA, 10 mM Hepes, pH 7.5) except during periods of drug applications.

α4β4 nAChR = target: T2, α4β4 nAChR (Homo sapiens, UniProt P30926+P43681); settings: 1 μM PAM
T2 construct: expressed in transfected cells; host or cells: Xenopus laevis oocytes injected with cRNA
Procedure: (§3) Next, Xenopus oocytes were injected with RNA mixes of […], α3:β4, […], or α4:β4 at ratios of 8:1, 1:1, or 1:8 to express nAChRs with different subunit composition and with various α:β ratios.
as §1, §2

α4β2 nAChR = target: T3, α4β2 nAChR (Homo sapiens, UniProt P17787+P43681); settings: 1 μM PAM
T3 construct: expressed in transfected cells; host or cells: Xenopus laevis oocytes injected with cRNA
Procedure: as §3, §1, §2

(α4L291V)3(β2)2 nAChR = target: T4, (α4L291V)3(β2)2 nAChR (Homo sapiens, UniProt P17787+P43681, L291V); settings: for R, potentiation ratio (PR): 10 µM ACh + 1 µM PAM vs 10 µM ACh alone
T4 construct: expressed in transfected cells; host or cells: Xenopus laevis oocytes injected with cRNA
Procedure: (§4) For amino acid substitutions within the α4 nAChR subunit, point mutations were introduced into pSP64ployA plasmid with cDNA encoding for human α4 nAChR subunit with mutagenic primer pairs using the Quick Change II Site-Directed Mutagenesis Kit (Agilent Technologies) then confirmed by DNA sequencing (GENEWIZ, LLC, South Plainfield, NJ). cRNA transcripts suitable for oocyte expression were prepared in vitro from linearized plasmids [α3 (BamH1), α4 (AseI), β2 (PvuII), β4 (XhoI)] using mMESSAGE mMACHINE high yield capped RNA transcription kits (Ambion) and purified on NucAway Spin column (Invitrogen). cRNA concentration was determined by spectroscopy (Concentration (ug/ul) = Abs260 * 40), aliquoted and stored at −80 °C until used.
as §1, §2

(α4T313C)3(β2)2 nAChR = target: T5, (α4T313C)3(β2)2 nAChR (Homo sapiens, UniProt P17787+P43681, T313C); settings: for R, potentiation ratio (PR): 10 µM ACh + 1 µM PAM vs 10 µM ACh alone
T5 construct: expressed in transfected cells; host or cells: Xenopus laevis oocytes injected with cRNA
Procedure: as §4, §1, §2

(α4F316L)3(β2)2 nAChR = (α4F316L)3(β2)2 nAChR (Homo sapiens, UniProt P43681, F316L); settings: for R, potentiation ratio (PR): 10 µM ACh + 1 µM PAM vs 10 µM ACh alone
Procedure: as §4, §1, §2

(α4S258M)3(β2)2 nAChR = (α4S258M)3(β2)2 nAChR (Homo sapiens, UniProt P43681, S258M); settings: for R, potentiation ratio (PR): 10 µM ACh + 1 µM PAM vs 10 µM ACh alone
Procedure: as §4, §1, §2

(α4S284G)3(β2)2 nAChR = target: T6, (α4S284G)3(β2)2 nAChR (Homo sapiens, UniProt P17787+P43681, S284G); settings: for R, potentiation ratio (PR): 10 µM ACh + 1 µM PAM vs 10 µM ACh alone
T6 construct: expressed in transfected cells; host or cells: Xenopus laevis oocytes injected with cRNA
Procedure: as §4, §1, §2

(α4I275V)3(β2)2 nAChR = target: T7, (α4I275V)3(β2)2 nAChR (Homo sapiens, UniProt P17787+P43681, I275V); settings: for R, potentiation ratio (PR): 10 µM ACh + 1 µM PAM vs 10 µM ACh alone
T7 construct: expressed in transfected cells; host or cells: Xenopus laevis oocytes injected with cRNA
Procedure: as §4, §1, §2

(α4L260M)3(β2)2 nAChR = target: T8, (α4L260M)3(β2)2 nAChR (Homo sapiens, UniProt P17787+P43681, L260M); settings: for R, potentiation ratio (PR): 10 µM ACh + 1 µM PAM vs 10 µM ACh alone
T8 construct: expressed in transfected cells; host or cells: Xenopus laevis oocytes injected with cRNA
Procedure: as §4, §1, §2

(α4V609A)3(β2)2 nAChR = target: T9, (α4V609A)3(β2)2 nAChR (Homo sapiens, UniProt P17787+P43681, V609A); settings: for R, potentiation ratio (PR): 10 µM ACh + 1 µM PAM vs 10 µM ACh alone
T9 construct: expressed in transfected cells; host or cells: Xenopus laevis oocytes injected with cRNA
Procedure: as §4, §1, §2

(α4L311V)3(β2)2 nAChR = (α4L311V)3(β2)2 nAChR (Homo sapiens, UniProt P43681, L311V); settings: 10 µM ACh + 1 µM PAM vs 10 µM ACh alone
Procedure: as §4, §1, §2

(α4C259V)3(β2)2 nAChR = (α4C259V)3(β2)2 nAChR (Homo sapiens, UniProt P43681, C259V); settings: 10 µM ACh + 1 µM PAM vs 10 µM ACh alone
Procedure: as §4, §1, §2

(α4L310F)3(β2)2 nAChR = target: T10, (α4L310F)3(β2)2 nAChR (Homo sapiens, UniProt P17787+P43681, L310F); settings: for R, potentiation ratio (PR): 10 µM ACh + 1 µM PAM vs 10 µM ACh alone
T10 construct: expressed in transfected cells; host or cells: Xenopus laevis oocytes injected with cRNA
Procedure: as §4, §1, §2

(α4C259F)3(β2)2 nAChR = (α4C259F)3(β2)2 nAChR (Homo sapiens, UniProt P43681, C259F); settings: 10 µM ACh + 1 µM PAM vs 10 µM ACh alone
Procedure: as §4, §1, §2

(α4F312V)3(β2)2 nAChR = target: T11, (α4F312V)3(β2)2 nAChR (Homo sapiens, UniProt P17787+P43681, F312V); settings: for R, potentiation ratio (PR): 10 µM ACh + 1 µM PAM vs 10 µM ACh alone
T11 construct: expressed in transfected cells; host or cells: Xenopus laevis oocytes injected with cRNA
Procedure: as §4, §1, §2

[1] = read-out: dFBr potentiation EC50
[2] = ACh concentration-response curve, normalized to 1 mM ACh alone
[3] = normalized to peak current by 10 µM ACh alone, curve fit
[4] = read-out: LY2087101 potentiation EC50
[5] = normalized to 10 µM ACh alone, not from curve fitting, maximum seen at any concentration up to 10 µM LY2087101

Sequence of (α4F316L)3(β2)2 nAChR (P43681 29-627 F316L limits assumed): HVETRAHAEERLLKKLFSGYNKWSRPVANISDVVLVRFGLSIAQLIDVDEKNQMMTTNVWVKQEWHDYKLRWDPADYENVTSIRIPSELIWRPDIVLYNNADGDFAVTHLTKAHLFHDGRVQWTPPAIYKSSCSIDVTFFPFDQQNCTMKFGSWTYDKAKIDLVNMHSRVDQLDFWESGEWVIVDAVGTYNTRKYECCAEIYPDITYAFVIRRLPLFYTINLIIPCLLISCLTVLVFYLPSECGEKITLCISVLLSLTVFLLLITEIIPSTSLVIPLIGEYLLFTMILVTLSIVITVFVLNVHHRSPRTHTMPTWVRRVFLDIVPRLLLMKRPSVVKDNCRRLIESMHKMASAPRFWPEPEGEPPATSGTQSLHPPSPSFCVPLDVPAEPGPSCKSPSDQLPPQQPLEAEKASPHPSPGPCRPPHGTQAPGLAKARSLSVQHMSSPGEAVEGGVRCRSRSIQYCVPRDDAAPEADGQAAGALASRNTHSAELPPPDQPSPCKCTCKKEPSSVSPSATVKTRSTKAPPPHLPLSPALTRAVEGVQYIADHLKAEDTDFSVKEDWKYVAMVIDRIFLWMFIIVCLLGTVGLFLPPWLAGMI
Sequence of (α4F316L)3(β2)2 nAChR (P17787 26-502 partner): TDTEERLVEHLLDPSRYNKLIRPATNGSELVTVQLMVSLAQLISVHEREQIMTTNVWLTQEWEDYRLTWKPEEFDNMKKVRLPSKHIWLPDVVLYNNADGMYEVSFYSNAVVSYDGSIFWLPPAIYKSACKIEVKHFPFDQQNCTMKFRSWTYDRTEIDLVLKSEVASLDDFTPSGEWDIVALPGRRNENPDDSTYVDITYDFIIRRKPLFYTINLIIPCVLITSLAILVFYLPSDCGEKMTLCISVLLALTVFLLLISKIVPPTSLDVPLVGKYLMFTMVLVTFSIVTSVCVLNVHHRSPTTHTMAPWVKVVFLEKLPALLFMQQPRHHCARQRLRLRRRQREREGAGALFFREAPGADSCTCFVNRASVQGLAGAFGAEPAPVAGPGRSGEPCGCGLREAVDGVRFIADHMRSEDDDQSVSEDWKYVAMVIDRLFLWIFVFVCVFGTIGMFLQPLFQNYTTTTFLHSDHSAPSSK
T9 sequence (P43681 29-627 V609A limits assumed): as the sequence (P43681 29-627 F316L limits assumed) above, with L288F, V581A counted along it
T9 sequence (P17787 26-502): as the sequence (P17787 26-502 partner) above
Sequence of (α4S258M)3(β2)2 nAChR (P43681 29-627 S258M limits assumed): as the sequence (P43681 29-627 F316L limits assumed) above, with S230M, L288F counted along it
Sequence of (α4S258M)3(β2)2 nAChR (P17787 26-502 partner): as the sequence (P17787 26-502 partner) above
T5 sequence (P43681 29-627 T313C limits assumed): as the sequence (P43681 29-627 F316L limits assumed) above, with T285C, L288F counted along it
T5 sequence (P17787 26-502): as the sequence (P17787 26-502 partner) above
T7 sequence (P43681 29-627 I275V limits assumed): as the sequence (P43681 29-627 F316L limits assumed) above, with I247V, L288F counted along it
T7 sequence (P17787 26-502): as the sequence (P17787 26-502 partner) above
T10 sequence (P43681 29-627 L310F limits assumed): as the sequence (P43681 29-627 F316L limits assumed) above, with L282F, L288F counted along it
T10 sequence (P17787 26-502): as the sequence (P17787 26-502 partner) above
T1 sequence (P43681 29-627 limits assumed): as the sequence (P43681 29-627 F316L limits assumed) above, with L288F counted along it
T1 sequence (P17787 26-502): as the sequence (P17787 26-502 partner) above
T8 sequence (P43681 29-627 L260M limits assumed): as the sequence (P43681 29-627 F316L limits assumed) above, with L232M, L288F counted along it
T8 sequence (P17787 26-502): as the sequence (P17787 26-502 partner) above
T11 sequence (P43681 29-627 F312V limits assumed): as the sequence (P43681 29-627 F316L limits assumed) above, with F284V, L288F counted along it
T11 sequence (P17787 26-502): as the sequence (P17787 26-502 partner) above
T4 sequence (P43681 29-627 L291V limits assumed): as the sequence (P43681 29-627 F316L limits assumed) above, with L263V, L288F counted along it
T4 sequence (P17787 26-502): as the sequence (P17787 26-502 partner) above
T6 sequence (P43681 29-627 S284G limits assumed): as the sequence (P43681 29-627 F316L limits assumed) above, with S256G, L288F counted along it
T6 sequence (P17787 26-502, stated change not applied): as the sequence (P17787 26-502 partner) above
Sequence of (α4C259V)3(β2)2 nAChR (P43681 29-627 C259V limits assumed): as the sequence (P43681 29-627 F316L limits assumed) above, with C231V, L288F counted along it
Sequence of (α4C259V)3(β2)2 nAChR (P17787 26-502 partner): as the sequence (P17787 26-502 partner) above
Sequence of (α4C259F)3(β2)2 nAChR (P43681 29-627 C259F limits assumed): as the sequence (P43681 29-627 F316L limits assumed) above, with C231F, L288F counted along it
Sequence of (α4C259F)3(β2)2 nAChR (P17787 26-502 partner): as the sequence (P17787 26-502 partner) above
Sequence of (α4L311V)3(β2)2 nAChR (P43681 29-627 L311V limits assumed): as the sequence (P43681 29-627 F316L limits assumed) above, with L283V, L288F counted along it
Sequence of (α4L311V)3(β2)2 nAChR (P17787 26-502 partner): as the sequence (P17787 26-502 partner) above
T3 sequence (P43681 29-627 limits assumed): as the sequence (P43681 29-627 F316L limits assumed) above, with L288F counted along it
T3 sequence (P17787 26-502): as the sequence (P17787 26-502 partner) above
T2 sequence (P43681 29-627 limits assumed): as the sequence (P43681 29-627 F316L limits assumed) above, with L288F counted along it
T2 sequence (P30926 22-498): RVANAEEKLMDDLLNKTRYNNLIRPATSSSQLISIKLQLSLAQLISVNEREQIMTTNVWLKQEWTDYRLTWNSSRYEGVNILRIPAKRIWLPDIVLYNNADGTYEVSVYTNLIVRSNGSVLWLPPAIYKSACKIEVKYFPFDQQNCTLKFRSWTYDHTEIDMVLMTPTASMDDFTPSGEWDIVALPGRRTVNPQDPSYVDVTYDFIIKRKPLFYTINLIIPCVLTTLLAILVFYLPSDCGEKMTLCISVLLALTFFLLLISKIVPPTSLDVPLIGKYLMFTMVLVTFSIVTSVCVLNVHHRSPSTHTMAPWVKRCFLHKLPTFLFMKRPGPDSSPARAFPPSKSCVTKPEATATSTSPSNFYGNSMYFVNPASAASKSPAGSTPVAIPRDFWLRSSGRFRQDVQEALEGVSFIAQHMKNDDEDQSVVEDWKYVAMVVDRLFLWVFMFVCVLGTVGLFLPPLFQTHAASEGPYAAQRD

SMILES	R, potentiation ratio (PR) ((α4)3(β2)2 nAChR; WT)	potentiation of ACh responses (α4β4 nAChR)	potentiation of ACh responses (α4β2 nAChR)	R, potentiation ratio (PR) ((α4L291V)3(β2)2 nAChR)	R, potentiation ratio (PR) ((α4T313C)3(β2)2 nAChR)	R, potentiation ratio (PR) ((α4F316L)3(β2)2 nAChR)	R, potentiation ratio (PR) ((α4S258M)3(β2)2 nAChR)	R, potentiation ratio (PR) ((α4S284G)3(β2)2 nAChR)	R, potentiation ratio (PR) ((α4I275V)3(β2)2 nAChR)	R, potentiation ratio (PR) ((α4L260M)3(β2)2 nAChR)	R, potentiation ratio (PR) ((α4V609A)3(β2)2 nAChR)	R, potentiation ratio (PR) ((α4L311V)3(β2)2 nAChR)	R, potentiation ratio (PR) ((α4C259V)3(β2)2 nAChR)	R, potentiation ratio (PR) ((α4L310F)3(β2)2 nAChR)	R, potentiation ratio (PR) ((α4C259F)3(β2)2 nAChR)	R, potentiation ratio (PR) ((α4F312V)3(β2)2 nAChR)	further results
C=CC(C)(C)c1[nH]c2cc(Br)ccc2c1CCNC [dFBr]	4.4 ± 0.2	did not potentiate	potentiated	3.5 ± 0.2	3.9 ± 0.4	1.2 and ~ 1.2 and 1.2 ± 0.1	5.0 ± 0.5	2.8 ± 0.4	4.0 ± 0.6	3.6 ± 0.4	3.2 ± 0.2	5.8 ± 1.4	4.6 ± 0.9	5.6 ± 0.3	3.1 ± 0.3	1.2 and ~ 1.2 and 1.2 ± 0.1	dFBr potentiation h (Hill coefficient) ((α4)3(β2)2 nAChR; co-applied with 10 μM ACh, WT): 1.1 ± 0.2; dFBr potentiation Imax ((α4)3(β2)2 nAChR; normalized to 10 µM ACh alone, WT): 580 ± 42%; EC50 ((α4)3(β2)2 nAChR; [1]): 1 ± 0.3 µM; dFBr potentiation h (Hill coefficient) ((α4L291V)3(β2)2 nAChR; co-applied with 10 μM ACh): 0.8 ± 0.2; dFBr potentiation Imax ((α4L291V)3(β2)2 nAChR; normalized to 10 µM ACh alone): 600 ± 136%; EC50 ((α4L291V)3(β2)2 nAChR; [1]): 2.9 ± 1.9 µM; ACh Imax in the presence of 1 µM dFBr ((α4F316L)3(β2)2 nAChR; [2]): 148 ± 12%; dFBr concentration-dependent potentiation of ACh-current responses ((α4F316L)3(β2)2 nAChR; dFBr up to 10 µM, 10 μM ACh): did not potentiate; ACh Imax in the presence of 1 µM dFBr ((α4L260M)3(β2)2 nAChR; [2]): 250 ± 36%; dFBr concentration-dependent potentiation of ACh-current responses ((α4F312V)3(β2)2 nAChR; dFBr up to 10 µM, 10 μM ACh): did not potentiate
Cc1nc(Nc2ccc(F)cc2)sc1C(=O)c1ccsc1 [LY2087101, [2-[(4-Fluorophenyl)amino]-4-methyl-5-thiazolyl]-3-thienylmethanone]	4.1 ± 0.3	potentiated	potentiated	3.7 ± 0.6	2.1 ± 0.2	1.1 ± 0.1	1.5 ± 0.2	3.8 ± 0.4	3.7 ± 0.5	1.6 ± 0.2	5.7 ± 1.1	15.6 ± 3.2	5.2 ± 0.6	9.8 ± 1.0	3.2 ± 0.4	2.5 ± 0.2	ACh Imax in the presence of 1 µM LY2087101 ((α4)3(β2)2 nAChR; [2]): 251 ± 19% and ~ 250%; EC50 ((α4)3(β2)2 nAChR; co-applied with 10 µM ACh, LS WT, read-out: LY2087101 potentiation EC50): 1.4 µM and 1 to 2 µM; LY2087101 potentiation Imax% ((α4L291V)3(β2)2 nAChR; [3]): 719 ± 20%; EC50 ((α4L291V)3(β2)2 nAChR; [4]): 1.6 ± 0.1 µM; LY2087101 potentiation Imax% ((α4T313C)3(β2)2 nAChR; [3]): 196 ± 23%; EC50 ((α4T313C)3(β2)2 nAChR; [4]): 0.7 ± 0.1 µM; ACh Imax in the presence of 1 µM LY2087101 ((α4F316L)3(β2)2 nAChR; [2]): 122 ± 13%; ACh Imax in the presence of 1 µM LY2087101 ((α4S258M)3(β2)2 nAChR; [2]): 232 ± 10%; LY2087101 potentiation Imax% ((α4S258M)3(β2)2 nAChR; [5]): 254 ± 12%; LY2087101 potentiation Imax% ((α4S284G)3(β2)2 nAChR; [3]): 537 ± 20%; EC50 ((α4S284G)3(β2)2 nAChR; [4]): 0.7 ± 0.1 µM; EC50 ((α4I275V)3(β2)2 nAChR; [4]): 1.7 ± 0.2 µM; ACh Imax in the presence of 1 µM LY2087101 ((α4L260M)3(β2)2 nAChR; [2]): 264 ± 80%; LY2087101 potentiation Imax% ((α4L260M)3(β2)2 nAChR; [3]): 269 ± 21%; EC50 ((α4L260M)3(β2)2 nAChR; [4]): 2.5 ± 0.6 µM; EC50 ((α4V609A)3(β2)2 nAChR; [4]): 1 ± 0.3 µM; EC50 ((α4L310F)3(β2)2 nAChR; [4]): 3.1 ± 0.1 µM; LY2087101 potentiation Imax% ((α4F312V)3(β2)2 nAChR; [5]): 269 ± 43%; EC50 ((α4F312V)3(β2)2 nAChR; [4]): 0.1 ± 0.01 µM
